Data taken from patent US6274715A, “Tricyclic erythromycin derivatives” (priority 1997, dated 2001).

Tests used:
Assay type in all cases: cell-based
[1] = test system: STREPTOCOCCUS PYOGENES 930; assay: In vitro antibacterial activity, MIC, BHI agar dilution; conditions: S. pyogenes 930, unit assumed
[2] = test system: STAPHYLOCOCCUS AUREUS CMX 553; assay: as above; conditions: S. aureus CMX 553, unit assumed
EN[…] ATCC 8043 = assay: as above; conditions: E. faecium ATCC 8043, unit assumed
In short: (§1)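 MIC was read visually as the lowest drug concentration showing no growth, a slight haze or sparsely isolated colonies relative to a compound-free BHI plate. Plates held serial aqueous dilutions in BHI agar, were spot-inoculated with 1:100 (or 1:10) culture dilutions and incubated 20 to 24 hours at 35-37° C.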

STR[…] 508 = assay: as above; conditions: S. agalactiae CMX 508, unit assumed
In short: as §1

M[…] ATCC 4698 = assay: as above; conditions: M. luteus ATCC 4698, unit assumed
In short: as §1

M[…] ATCC 9341 = assay: as above; conditions: M. luteus ATCC 9341, unit assumed
In short: as §1

[3] = test system: STAPHYLOCOCCUS AUREUS A5177; assay: as above; conditions: S. aureus A5177, unit assumed
[4] = test system: PSEUDOMONAS AERUGINOSA 5007; assay: as above; conditions: P. aeruginosa 5007, unit assumed
[5] = test system: PSEUDOMONAS AERUGINOSA K799/61; assay: as above; conditions: P. aeruginosa K799/61, unit assumed
ESCHERICHIA COLI SS = assay: as above; conditions: E. coli SS, unit assumed
[6] = test system: STAPHYLOCOCCUS AUREUS NCTC10649M; assay: as above; conditions: S. aureus NCTC10649M, unit assumed
ESCHERICHIA COLI DC-2 = assay: as above; conditions: E. coli DC-2, unit assumed
[7] = test system: PSEUDOMONAS AERUGINOSA BMH10; assay: as above; conditions: P. aeruginosa BMH10, unit assumed
PSEUDOMONAS CEPACIA 296I = assay: as above; conditions: P. cepacia 296I, unit assumed
[8] = test system: ENTEROBACTER AEROGENES ATCC 13048; assay: as above; conditions: E. aerogenes ATCC 13048, unit assumed
[9] = test system: PROVIDENCIA STUARTII CMX 640; conditions: P. stuartii CMX 640; BHI agar; unit assumed
[10] = test system: MYCOBACTERIUM SMEGMATIS ATCC 114; assay: In vitro antibacterial activity, MIC, BHI agar dilution; conditions: M. smegmatis ATCC 114, unit assumed
[11] = test system: PSEUDOMONAS AERUGINOSA DPHD-5263; assay: as above; conditions: P. aeruginosa DPHD-5263, unit assumed
[12] = test system: PSEUDOMONAS AERUGINOSA K799/WT; assay: as above; conditions: P. aeruginosa K799/WT, unit assumed
ESCHERICHIA COLI H560 = assay: as above; conditions: E. coli H560, unit assumed
ESCHERICHIA COLI KNK 437 = conditions: E. coli KNK 437; BHI agar; unit assumed
[13] = test system: STAPHYLOCOCCUS EPIDERMIDIS 3519; conditions: S. epidermidis 3519; BHI agar; unit assumed
[14] = test system: KLEBSIELLA PNEUMONIAE ATCC 8045; assay: In vitro antibacterial activity, MIC, BHI agar dilution; conditions: K. pneumoniae ATCC 8045, unit assumed
[15] = test system: STAPHYLOCOCCUS AUREUS A-5278; assay: as above; conditions: S. aureus A-5278, unit assumed
[16] = test system: STREPTOCOCCUS BOVIS A-5169; assay: as above; conditions: S. bovis A-5169, unit assumed
[17] = test system: STAPHYLOCOCCUS AUREUS 1775; assay: as above; conditions: S. aureus 1775, unit assumed
CANDIDA ALBICANS CCH 442 = assay: as above; conditions: C. albicans CCH 442, unit assumed
[18] = test system: STREPTOCOCCUS PYOGENES PIU 2548; assay: as above; conditions: S. pyogenes PIU 2548, unit assumed
[19] = test system: STAPHYLOCOCCUS AUREUS CMX 642A; assay: as above; conditions: S. aureus CMX 642A, unit assumed
ESCHERICHIA COLI JUHL = conditions: E. coli JUHL; BHI agar; unit assumed
[20] = test system: STAPHYLOCOCCUS AUREUS ATCC 6538P; assay: In vitro antibacterial activity, MIC, BHI agar dilution; conditions: S. aureus ATCC 6538P, 35-37° C., 20 to 24 hours, unit assumed
[21] = test system: STREPTOCOCCUS PYOGENES EES61; assay: as above; conditions: S. pyogenes EES61, unit assumed
[22] = test system: PSEUDOMONAS AERUGINOSA DPHD-2862; assay: as above; conditions: P. aeruginosa DPHD-2862, unit assumed

Measured: MIC

CC[C@H]1OC(=O)[C@H](C)C(=O)[C@H](C)[C@@H](O[C@@H]2O[C@H](C)C[C@H](N(C)C)[C@H]2O)[C@](C)(OC)C[C@@H](C)C2=NCC(CN(C)Cc3ccccc3)N3C(=O)O[C@@]1(C)[C@H]3[C@H]2C (stereo partly drawn) [Example 132]
50 µg/mL: [1] | ESCHERICHIA COLI H560
0.2 µg/mL: M[…] ATCC 4698
0.78 µg/mL: ESCHERICHIA COLI SS | [10] | [18]
0.02 µg/mL: STR[…] 508 | [21]
1.56 µg/mL: [5]
0.01 µg/mL: [16]
0.05 µg/mL: M[…] ATCC 9341
0.1 µg/mL: EN[…] ATCC 8043
100 µg/mL: ESCHERICHIA COLI DC-2 | [12] | [15] | [17] | ESCHERICHIA COLI JUHL
0.39 µg/mL: [2] | [3] | [6] | [13] | [19] | [20]
> 100 µg/mL: all other assays above

CCC1OC(=O)C(C)C(=O)C(C)C(OC2OC(C)CC(N(C)C)C2O)C(C)(OC)CC(C)C2=NCC(C)(CN(C)Cc3ccccc3)N3C(=O)OC1(C)C3C2C (stereo not drawn) [Example 134]
1.56 µg/mL: [5] | ESCHERICHIA COLI SS
50 µg/mL: ESCHERICHIA COLI H560
100 µg/mL: ESCHERICHIA COLI DC-2 | ESCHERICHIA COLI JUHL
0.05 µg/mL: M[…] ATCC 9341
0.01 µg/mL: [16]
0.78 µg/mL: [2] | M[…] ATCC 4698 | [3] | [6] | [10] | [13] | [18] | [19] | [20]
0.02 µg/mL: STR[…] 508 | [21]
0.1 µg/mL: EN[…] ATCC 8043
> 100 µg/mL: all other assays above

CC[C@H]1OC(=O)[C@H](C)C(=O)[C@H](C)[C@@H](O[C@@H]2O[C@H](C)C[C@H](N(C)C)[C@H]2O)[C@](C)(OC)C[C@@H](C)C2=NC[C@H](COC(=O)c3ccncc3)N3C(=O)O[C@@]1(C)[C@H]3[C@H]2C [Example 138]
0.01 µg/mL: [16]
50 µg/mL: ESCHERICHIA COLI DC-2 | ESCHERICHIA COLI H560 | ESCHERICHIA COLI KNK 437 | ESCHERICHIA COLI JUHL
100 µg/mL: PSEUDOMONAS CEPACIA 296I
0.1 µg/mL: EN[…] ATCC 8043 | STR[…] 508
0.39 µg/mL: [2] | M[…] ATCC 4698 | [3] | [6] | [13] | [19] | [20]
0.78 µg/mL: [5] | ESCHERICHIA COLI SS
0.02 µg/mL: M[…] ATCC 9341 | [21]
1.56 µg/mL: [18]
3.1 µg/mL: [10]
> 100 µg/mL: all other assays above
